# Key:
# purple nutsedge = experiment: Test B pre/postemergence purple nutsedge; assay type: in vivo, Cyperus rotundus
# From the text: (§1) Seeds of bedstraw (Galium aparine), blackgrass (Alopecurus myosuroides), surinam grass (Brachiaria decumbens), cocklebur (Xanthium strumarium), corn (Zea mays), crabgrass (Digitaria sanguinalis), giant foxtail (Setaria faberii), morningglory (Ipomoea hederacea), pigweed (Amaranthus retroflexus), rape (Brassica napus), soybean (Glycine max), sugar beet (Beta vulgaris), velvetleaf (Abutilon theophrasti), wheat (Triticum aestivum), wild oat (Avena fatua) and purple nutsedge (Cyperus rotundus) tubers were planted and treated preemnergence with test chemicals formulated in a non-phytotoxic solvent mixture which included a surfactant.
# (§2) At the same time, these crop and weed species were also treated with postemergence applications of test chemicals formulated in the same manner. Plants ranged in height from 2 to 18 cm (1- to 4-leaf stage) for postemergence treatments. Plant species in the flood test consisted of rice (Oryza sativa), smallflower flatsedge (Cyperus difformis), duck salad (Heteranthera limosa) and bamyardgrass (Echinochloa crus-galli) grown to the 2-leaf stage for testing. Treated plants and controls were maintained in a greenhouse for twelve to sixteen days, after which all species were compared to controls and visually evaluated. Plant response ratings, summarized in Table B, are based on a scale of 0 to 10 where 0 is no effect and 10 is complete control. A dash (−) response means no test result.
# bedstraw = experiment: Test B pre/postemergence bedstraw; assay type: in vivo, Galium aparine
# From the text: as §1, §2
# giant foxtail = experiment: Test B pre/postemergence giant foxtail; assay type: in vivo, Setaria faberii
# From the text: as §1, §2
# velvetleaf = experiment: Test B pre/postemergence velvetleaf; assay type: in vivo, Abutilon theophrasti
# From the text: as §1, §2
# rape = experiment: Test B pre/postemergence rape; assay type: in vivo, Brassica napus
# From the text: as §1, §2
# morningglory = experiment: Test B pre/postemergence morningglory; assay type: in vivo, Ipomoea hederacea
# From the text: as §1, §2
# surinam grass = experiment: Test B pre/postemergence surinam grass; assay type: in vivo, Brachiaria decumbens
# From the text: as §1, §2
# wild oat = experiment: Test B pre/postemergence wild oat; assay type: in vivo, Avena fatua
# From the text: as §1, §2
# cocklebur = experiment: Test B pre/postemergence cocklebur; assay type: in vivo, Xanthium strumarium
# From the text: as §1, §2
# soybean = experiment: Test B pre/postemergence soybean; assay type: in vivo, Glycine max
# From the text: as §1, §2
# sugar beet = experiment: Test B pre/postemergence sugar beet; assay type: in vivo, Beta vulgaris
# From the text: as §1, §2
# blackgrass = experiment: Test B pre/postemergence blackgrass; assay type: in vivo, Alopecurus myosuroides
# From the text: as §1, §2
# pigweed = experiment: Test B pre/postemergence pigweed; assay type: in vivo, Amaranthus retroflexus
# From the text: as §1, §2
# wheat = experiment: Test B pre/postemergence wheat; assay type: in vivo, Triticum aestivum
# From the text: as §1, §2
# crabgrass = experiment: Test B pre/postemergence crabgrass; assay type: in vivo, Digitaria sanguinalis
# From the text: as §1, §2
# corn = experiment: Test B pre/postemergence corn; assay type: in vivo, Zea mays
# From the text: as §1, §2
# [1] = Postemergence, Rate 62 g/ha, scale 0 to 10, 0 is no effect, 10 is complete control
# [2] = Postemergence, Rate 125 g/ha, scale of 0 to 10 where 0 is no effect and 10 is complete control
# [3] = Preemergence, Rate 125 g/ha, scale of 0 to 10 where 0 is no effect and 10 is complete control
# [4] = Preemergence, Rate 250 g/ha, scale 0 (no effect) to 10 (complete control)
# [5] = Rate 62 g/ha, Preemergence, scale 0 to 10
# [6] = Rate 250 g/ha, Postemergence, scale 0 to 10, 0 is no effect, 10 is complete control
# [7] = Rate 500 g/ha, Postemergence, scale 0 to 10, 0 is no effect, 10 is complete control
# [8] = Rate 500 g/ha, Preemergence, scale 0 to 10 (0 no effect, 10 complete control)
# [9] = Preemergence, Rate 62 g/ha, scale of 0 to 10 where 0 is no effect and 10 is complete control
# [10] = Preemergence, Rate 250 g/ha, scale 0 to 10 (0 no effect, 10 complete control)
# [11] = Preemergence, Rate 500 g/ha, scale of 0 to 10 where 0 is no effect and 10 is complete control
smiles,measurement,setting,value
CC(C)N(C(=O)n1oc(=O)n(C(C)C2=NOCC2)c1=O)c1ccc(Cl)cc1 (racemic) [Compound 759],"Plant response rating, Nutsedge",purple nutsedge; [1],0
same,Nutsedge plant response rating,purple nutsedge; [2],0
same,"Plant response rating, Nutsedge",purple nutsedge; [3],0
same,Nutsedge plant response rating,purple nutsedge; [4],0
same,Nutsedge plant response rating,purple nutsedge; [5],0
same,Nutsedge plant response rating,purple nutsedge; [6],0
same,Nutsedge plant response rating,purple nutsedge; [7],0
same,Nutsedge plant response rating,purple nutsedge; [8],0
same,"Plant response rating, Bedstraw",bedstraw; [1],0
same,"Plant response rating, Bedstraw",bedstraw; [3],0
same,Bedstraw plant response rating,bedstraw; [4],0
same,Bedstraw plant response rating,bedstraw; [5],0
same,Bedstraw plant response rating,bedstraw; [8],0
same,"Plant response rating, Giant foxtail",giant foxtail; [1],3
same,Giant foxtail plant response rating,giant foxtail; [2],5
same,"Plant response rating, Giant foxtail",giant foxtail; [3],9
same,Giant foxtail plant response rating,giant foxtail; [4],10
same,Giant foxtail plant response rating,giant foxtail; [5],9
same,Giant foxtail plant response rating,giant foxtail; [6],8
same,Giant foxtail plant response rating,giant foxtail; [7],8
same,Giant foxtail plant response rating,giant foxtail; [8],10
same,"Plant response rating, Velvetleaf",velvetleaf; [1],2
same,"Plant response rating, Velvetleaf",velvetleaf; [3],0
same,Velvetleaf plant response rating,velvetleaf; [4],0
same,Velvetleaf plant response rating,velvetleaf; [5],0
same,Velvetleaf plant response rating,velvetleaf; [6],6
same,Velvetleaf plant response rating,velvetleaf; [7],6
same,Velvetleaf plant response rating,velvetleaf; [8],0
same,"Plant response rating, Rape",rape; [1],0
same,Rape plant response rating,rape; [2],0
same,"Plant response rating, Rape",rape; [3],0
same,Rape plant response rating,rape; [4],0
same,Rape plant response rating,rape; [5],0
same,Rape plant response rating,rape; [6],0
same,Rape plant response rating,rape; [7],0
same,Rape plant response rating,rape; [8],4
same,"Plant response rating, Morningglory",morningglory; [1],3
same,Morningglory plant response rating,morningglory; [2],3
same,"Plant response rating, Morningglory",morningglory; [3],0
same,Morningglory plant response rating,morningglory; [4],0
same,Morningglory plant response rating,morningglory; [5],0
same,Morningglory plant response rating,morningglory; [6],3
same,Morningglory plant response rating,morningglory; [7],4
same,Morningglory plant response rating,morningglory; [8],0
same,"Plant response rating, B. signalgrass",surinam grass; [1],0
same,B. signalgrass plant response rating,surinam grass; [2],3
same,B. signalgrass plant response rating,surinam grass; [9],3
same,"Plant response rating, B. signalgrass",surinam grass; [3],3
same,B. signalgrass plant response rating,surinam grass; [4],8
same,B. signalgrass plant response rating,surinam grass; [6],6
same,B. signalgrass plant response rating,surinam grass; [7],7
same,B. signalgrass plant response rating,surinam grass; [8],8
same,"Plant response rating, Wild oats",wild oat; [1],0
same,"Plant response rating, Wild oats",wild oat; [3],4
same,Wild oats plant response rating,wild oat; [4],5
same,Wild oats plant response rating,wild oat; [5],0
same,Wild oats plant response rating,wild oat; [6],2
same,Wild oats plant response rating,wild oat; [7],3
same,Wild oats plant response rating,wild oat; [8],8
same,"Plant response rating, Cocklebur",cocklebur; [1],0
same,Cocklebur plant response rating,cocklebur; [2],0
same,"Plant response rating, Cocklebur",cocklebur; [3],0
same,Cocklebur plant response rating,cocklebur; [4],0
same,Cocklebur plant response rating,cocklebur; [5],0
same,Cocklebur plant response rating,cocklebur; [6],1
same,Cocklebur plant response rating,cocklebur; [7],2
same,Cocklebur plant response rating,cocklebur; [8],0
same,"Plant response rating, Soybean",soybean; [1],3
same,"Plant response rating, Soybean",soybean; [3],0
same,Soybean plant response rating,soybean; [4],0
same,Soybean plant response rating,soybean; [5],0
same,Soybean plant response rating,soybean; [6],3
same,Soybean plant response rating,soybean; [7],3
same,Soybean plant response rating,soybean; [8],0
same,"Plant response rating, Sugarbeets",sugar beet; [1],0
same,"Plant response rating, Sugarbeets",sugar beet; [3],0
same,Sugarbeets plant response rating,sugar beet; [4],4
same,Sugarbeets plant response rating,sugar beet; [5],0
same,Sugarbeets plant response rating,sugar beet; [6],0
same,Sugarbeets plant response rating,sugar beet; [7],0
same,Sugarbeets plant response rating,sugar beet; [8],5
same,"Plant response rating, Blackgrass",blackgrass; [1],4
same,Blackgrass plant response rating,blackgrass; [2],5
same,"Plant response rating, Blackgrass",blackgrass; [3],5
same,Blackgrass plant response rating,blackgrass; [4],5
same,Blackgrass plant response rating,blackgrass; [5],4
same,Blackgrass plant response rating,blackgrass; [6],7
same,Blackgrass plant response rating,blackgrass; [7],8
same,Blackgrass plant response rating,blackgrass; [8],8
same,"Plant response rating, Redroot pigweed",pigweed; [1],0
same,Redroot pigweed plant response rating,pigweed; [2],0
same,"Plant response rating, Redroot pigweed",pigweed; [3],2
same,Redroot pigweed plant response rating,pigweed; [4],3
same,Redroot pigweed plant response rating,pigweed; [5],0
same,Redroot pigweed plant response rating,pigweed; [6],0
same,Redroot pigweed plant response rating,pigweed; [7],4
same,Redroot pigweed plant response rating,pigweed; [8],4
same,"Plant response rating, Wheat",wheat; [1],0
same,"Plant response rating, Wheat",wheat; [3],2
same,Wheat plant response rating,wheat; [4],3
same,Wheat plant response rating,wheat; [5],0
same,Wheat plant response rating,wheat; [6],0
same,Wheat plant response rating,wheat; [7],0
same,Wheat plant response rating,wheat; [8],8
same,"Plant response rating, Crabgrass",crabgrass; [1],2
same,Crabgrass plant response rating,crabgrass; [2],4
same,"Plant response rating, Crabgrass",crabgrass; [3],7
same,Crabgrass plant response rating,crabgrass; [4],8
same,Crabgrass plant response rating,crabgrass; [5],7
same,Crabgrass plant response rating,crabgrass; [6],8
same,Crabgrass plant response rating,crabgrass; [7],8
same,Crabgrass plant response rating,crabgrass; [8],9
same,"Plant response rating, Corn",corn; [1],0
same,Corn plant response rating,corn; [2],0
same,"Plant response rating, Corn",corn; [3],0
same,Corn plant response rating,corn; [4],0
same,Corn plant response rating,corn; [5],0
same,Corn plant response rating,corn; [6],0
same,Corn plant response rating,corn; [7],0
same,Corn plant response rating,corn; [8],0
CC(C)N(C(=O)n1oc(=O)n(C(C)C2CC2)c1=O)c1ccc(Cl)cc1 (stereo not shown) [Compound 700],Bedstraw plant response rating,bedstraw; [9],0
same,"Plant response rating, Bedstraw",bedstraw; [10],0
same,"Plant response rating, Bedstraw",bedstraw; [11],8
same,Giant foxtail plant response rating,giant foxtail; [9],10
same,Velvetleaf plant response rating,velvetleaf; [9],0
same,Rape plant response rating,rape; [9],0
same,Morningglory plant response rating,morningglory; [9],0
same,B. signalgrass plant response rating,surinam grass; [9],4
same,"Plant response rating, B. signalgrass",surinam grass; [10],8
same,"Plant response rating, B. signalgrass",surinam grass; [11],10
same,Wild oats plant response rating,wild oat; [9],4
same,Cocklebur plant response rating,cocklebur; [9],0
same,"Plant response rating, Cocklebur",cocklebur; [10],0
same,"Plant response rating, Cocklebur",cocklebur; [11],0
same,Soybean plant response rating,soybean; [9],0
same,Sugarbeets plant response rating,sugar beet; [9],0
same,Blackgrass plant response rating,blackgrass; [9],4
same,"Plant response rating, Blackgrass",blackgrass; [10],8
same,"Plant response rating, Blackgrass",blackgrass; [11],10
same,Redroot pigweed plant response rating,pigweed; [9],0
same,Wheat plant response rating,wheat; [9],0
same,Crabgrass plant response rating,crabgrass; [9],10
same,"Plant response rating, Crabgrass",crabgrass; [10],10
same,Corn plant response rating,corn; [9],0
same,"Plant response rating, Corn",corn; [10],3
